ChEMBL document CHEMBL1201862, “PubChem BioAssay data set” (2004)
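Five concentrations, 48 hours, 96-well plates. The concentration for 50% growth inhibition is given as GI50.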 Active and inactive are the calls of the source. No stated cut-off is given here; in the data, active = GI50 up to about 1.1 µM and inactive = higher. Residues, ends and D or L forms follow the SMILES beside them. *: point of attachment. Cbz = O=C(OCc1ccccc1)*

Assays:
Test in all cases: inhibition of tumour cell growth, NCI panel, 48 h
[1] = test system: SF-539
[2] = test system: SK-OV-3
[3] = test system: 786-0
[4] = test system: OVCAR-8
[5] = test system: HCC 2998
[6] = test system: EKVX
[7] = test system: SK-MEL-5
[8] = test system: IGROV-1
[9] = test system: TK-10
[10] = test system: CAKI-1
[11] = test system: OVCAR-5
[12] = test system: SF-295
[13] = test system: KM12
[14] = test system: SNB-19
[15] = test system: A549
[16] = test system: HL-60
[17] = test system: ACHN
[18] = test system: U-251
[19] = test system: HOP-62
[20] = test system: RPMI-8226

Measured: GI50

CC1C2(C)OC(=N)C(C#N)(C(C)O2)C1(C#N)C#N (stereo not drawn)
inactive: [1] 22.1 µM | [2] > 100 µM | [3] 22 µM | [4] 31 µM | [5] 20.4 µM | [6] 30.8 µM | [7] 13.1 µM | [8] 39.5 µM | [9] 36.8 µM | [10] 13.6 µM | [11] 30.5 µM | [12] 90.2 µM | [13] 49.8 µM | [14] > 10 µM | [15] 79.1 µM | [16] 14.1 µM | [17] 33.3 µM | [18] 21.4 µM

O=C1c2ccccc2C(=O)c2[nH]cnc21
inactive: [1] 61.2 µM | [3] 75.9 µM | [4] 34.7 µM | [5] 48.4 µM | [6] 91.2 µM | [7] 18.1 µM | [9] > 100 µM | [10] > 100 µM | [12] 34.3 µM | [13] 53.8 µM | [14] 46.7 µM | [15] 55.3 µM | [16] 23.6 µM | [19] > 100 µM | [17] 66.7 µM | [18] 73.8 µM

COC(=O)C(=O)C(C(=O)C(=O)Nc1ccc([N+](=O)[O-])cc1C#N)c1nc2ccc([N+](=O)[O-])cc2nc1O (stereo not drawn)
inactive: [1] > 100 µM | [2] > 100 µM | [3] > 100 µM | [20] > 100 µM | [4] > 100 µM | [6] 35.6 µM | [9] > 100 µM | [10] 94.6 µM | [11] > 100 µM | [12] > 100 µM | [13] > 100 µM | [14] > 100 µM | [15] > 100 µM | [16] > 100 µM | [19] 94.2 µM | [17] > 100 µM | [18] > 100 µM

Nc1nc(-c2ccco2)cc(-c2ccc(CO)o2)n1
inactive: [1] > 100 µM | [3] > 100 µM | [20] 41.4 µM | [4] > 100 µM | [6] > 100 µM | [7] > 100 µM | [8] > 100 µM | [9] > 100 µM | [11] > 100 µM | [12] > 100 µM | [13] > 100 µM | [14] 65.5 µM | [15] > 100 µM | [16] > 100 µM | [19] > 100 µM | [17] > 100 µM

O=C(c1ccccc1)N1CCC(Nc2cccnc2)O1 (stereo not drawn)
inactive: [1] > 100 µM | [2] > 100 µM | [3] > 100 µM | [4] > 100 µM | [5] 50.8 µM | [6] > 100 µM | [7] > 100 µM | [8] > 100 µM | [9] > 100 µM | [11] > 100 µM | [12] > 100 µM | [13] > 100 µM | [14] > 100 µM | [15] > 100 µM | [16] > 100 µM | [19] > 100 µM | [17] > 100 µM | [18] > 100 µM

CCOC(=O)c1ccc(/N=N/c2cc(C(=O)OCC)ccc2O)cc1
inactive: [1] > 100 µM | [2] > 100 µM | [3] 76 µM | [20] > 100 µM | [4] > 100 µM | [6] 20.1 µM | [7] > 100 µM | [8] > 100 µM | [9] > 100 µM | [10] 46.6 µM | [15] > 100 µM | [16] > 100 µM | [19] > 100 µM | [17] 84.3 µM | [18] > 100 µM

COc1ccc(/N=C(/[N-]n2c(=O)c(C)nn(C)c2=S)N(c2ccc(OC)cc2)c2n[n+]3c(=O)c(C)nn(C)c3s2)cc1
inactive: [1] > 100 µM | [3] > 100 µM | [20] > 100 µM | [4] > 100 µM | [6] > 100 µM | [7] > 100 µM | [8] > 100 µM | [11] > 100 µM | [12] > 100 µM | [13] > 100 µM | [14] > 100 µM | [15] > 100 µM | [16] > 100 µM | [19] > 100 µM | [17] > 100 µM | [18] > 100 µM

CS(=O)(=O)N(CCC#N)c1ccc(/C=N/NC(=O)CC(=O)Nc2cccc(Cl)c2)cc1
inactive: [1] > 100 µM | [2] > 100 µM | [3] > 100 µM | [20] > 100 µM | [4] > 100 µM | [5] > 100 µM | [6] > 100 µM | [7] > 100 µM | [8] > 100 µM | [9] > 100 µM | [10] > 100 µM | [11] > 100 µM | [12] > 100 µM | [13] > 100 µM | [14] > 100 µM | [15] > 100 µM | [19] > 100 µM | [17] > 100 µM | [18] > 100 µM

COc1ncc(C=C(C#N)C#N)c(OC)n1
inactive: [1] 30.8 µM | [2] > 100 µM | [3] 19.3 µM | [20] 24 µM | [4] 24.2 µM | [6] 79.8 µM | [7] 29.3 µM | [8] 59.3 µM | [9] 37.3 µM | [10] 36.1 µM | [11] 86.7 µM | [12] 85.5 µM | [13] 50 µM | [14] 52.6 µM | [15] > 100 µM | [16] 16.7 µM | [19] 83.6 µM | [17] 48.5 µM | [18] 43.6 µM

O=C1C[C@@H]2[C@@H](c3ccccc3)[C@@H]3C(=O)c4ccccc4NC(=O)[C@H]3[C@]2(O)c2ccccc2N1
inactive: [3] > 100 µM | [20] > 100 µM | [4] > 100 µM | [6] > 100 µM | [7] > 100 µM | [8] > 100 µM | [9] > 100 µM | [11] > 100 µM | [12] > 100 µM | [13] > 100 µM | [14] > 100 µM | [15] > 100 µM | [16] > 100 µM | [19] > 100 µM | [17] > 100 µM | [18] > 100 µM

CC(C)CC(C#CCCOC(=O)c1ccccc1)OC(=O)c1ccccc1 (stereo not drawn)
inactive: [1] > 10 µM | [2] > 10 µM | [3] > 10 µM | [4] > 10 µM | [5] > 10 µM | [6] > 10 µM | [7] > 10 µM | [8] > 10 µM | [9] > 10 µM | [11] > 10 µM | [12] > 10 µM | [13] > 10 µM | [14] > 10 µM | [15] > 10 µM | [16] > 10 µM | [19] > 10 µM | [17] > 10 µM | [18] > 10 µM

Cc1cc(NS(=O)(=O)c2ccc(Nc3c4ccccc4nc4c(C(=O)N5CCN(CCO)CC5)cccc34)cc2)no1
inactive: [1] > 100 µM | [2] > 100 µM | [3] > 100 µM | [4] > 100 µM | [5] 49 µM | [6] > 100 µM | [7] > 100 µM | [8] > 100 µM | [9] > 100 µM | [10] > 100 µM | [11] > 100 µM | [12] > 100 µM | [13] > 100 µM | [14] > 100 µM | [15] > 100 µM | [16] 47.6 µM | [19] > 100 µM | [17] > 100 µM | [18] > 100 µM

O=C(O)c1cccc(/N=N/c2c(S(=O)(=O)O)ccc3c2C(=O)c2ccccc2C3=O)c1O
inactive: [1] > 100 µM | [2] > 100 µM | [3] > 100 µM | [20] > 100 µM | [4] > 100 µM | [6] > 100 µM | [7] > 100 µM | [8] > 100 µM | [9] > 100 µM | [10] > 100 µM | [11] > 100 µM | [12] > 100 µM | [13] > 100 µM | [14] > 100 µM | [15] > 100 µM | [16] > 100 µM | [19] > 100 µM | [17] > 100 µM | [18] > 100 µM

CCOC(=O)C/C(N)=C(\C#N)C(=O)OCC
inactive: [1] > 100 µM | [2] > 100 µM | [3] > 100 µM | [20] > 100 µM | [4] > 100 µM | [6] > 100 µM | [7] > 100 µM | [8] > 100 µM | [9] > 100 µM | [10] > 100 µM | [11] > 100 µM | [12] > 100 µM | [13] > 100 µM | [14] > 100 µM | [15] > 100 µM | [16] > 100 µM | [17] > 100 µM | [18] > 100 µM

CC(NC(=O)C(NC(=O)OCc1ccccc1)C(C)C)C(=O)NCC(=O)O (stereo not drawn) (Cbz-Val-Ala-Gly-OH; configuration not given here)
inactive: [1] > 100 µM | [2] > 100 µM | [3] > 100 µM | [20] > 100 µM | [4] > 100 µM | [5] > 100 µM | [6] > 100 µM | [7] > 100 µM | [8] > 100 µM | [9] > 100 µM | [10] > 100 µM | [11] > 100 µM | [12] > 100 µM | [13] > 100 µM | [14] > 100 µM | [15] > 100 µM | [19] > 100 µM | [17] > 100 µM | [18] > 100 µM
